From patent US7345070B2, “Peroxisome proliferator activated receptor agonists” (Eli Lilly and Company, priority 2000, dated 2008) come the findings set out here.

Experiment [1] deals with db/db mice. As to the kind of experiment: Evaluation of glucose levels in db/db mice. The class given is in vivo. Conditions: Mus musculus, 168 h, 30 mg/kg oral gavage daily for 7 days, 100% = glucose not different from lean values, read-out: Glucose Normalisation. How it is done:
Five week old male diabetic (db/db) mice [C57BlKs/j-m+/+ Lepr(db), Jackson Laboratory, Bar Harbor, Me.] or lean littermates (db+) were housed 6 per cage (10″×20″×8″ with aspen chip bedding) with food (Purina 5015) and water available at all times. After an acclimation period of 2 weeks, animals were individually identified by ear notches, weighed, and bled via the tail vein for determination of initial glucose levels. Blood was collected (100 μl) from unfasted animals by wrapping each mouse in a towel, cutting the tip of the tail with a scalpel, and milking blood from the tail into a heparinized capillary tube (Fisher) balanced on the edge of the bench. Sample was discharged into a heparinized microtainer with gel separator (VWR) and retained on ice. Plasma was obtained after centrifugation at 4° C. and glucose measured immediately. Remaining plasma was frozen until the completion of the experiment, when glucose and triglycerides were assayed in all samples. Animals were grouped based on initial glucose levels and body weights. Beginning the following morning, mice were dosed daily by oral gavage for 7 days using a 20 gauge, 1½″ curved disposable feeding needle. Treatments were test compounds (30 mg/kg), a positive control agent (30 mg/kg) or vehicle [1% carboxymethylcellulose (w/v)/0.25% Tween80 (w/v); 0.3 ml/mouse]. On day 7, mice were weighed and bled (tail vein) 3 hours after dosing. Twenty-four hours after the 7th dose (i.e., day 8), animals were bled again (tail vein). Samples obtained from conscious animals on days 0, 7 and 8 were assayed for glucose. After the 24 hour bleed, animals were weighed and dosed for the final time. Three hours after dosing on day 8, animals were anesthetized by inhalation of isoflurane and blood obtained via cardiac puncture (0.5-0.7 ml). Whole blood was transferred to serum separator tubes, chilled on ice and permitted to clot. Serum was obtained after centrifugation at 4° C. and frozen until analysis for compound levels. After sacrifice by cervical dislocation, the liver, heart and epididymal fat pads were excised and weighed.
The animals dosed with vehicle had average triglycerides values of 170-230 mg/dl, which were reduced by the positive PPARγ control (70-120 mg/dl with a mean reduction of 50%). Male db/db mice were hyperglycemic (average glucose of 680-730 mg/dl on the 7th day of treatment), while lean animals had average glucose levels between 190-230 mg/dl.
Glucose was measured […] using commercially purchased reagents (Sigma #315-500). According to the manufacturers, the procedures were modified from published work (McGowan, M. W., Artiss, J. D., Strandbergh, D. R. & Zak, B. Clin Chem, 20:470-5 (1974) and Keston, A. Specific colorimetric enzymatic analytical reagents for glucose. Abstract of papers 129th Meeting ACS, 31C (1956).); and depend on the release of a mole of hydrogen peroxide for each mole of analyte, coupled with a color reaction first described by Trinder (Trinder, P. Determination of glucose in blood using glucose oxidase with an alternative oxygen acceptor. Ann Clin Biochem, 6:24 (1969)). The absorbance of the dye produced is linearly related to the analyte in the sample. The assays were further modified in our laboratory for use in a 96 well format. Standards (Sigma #339-11, Sigma #16-11, and Sigma #CC0534 for glucose, triglycerides and total cholesterol, respectively), quality control plasma (Sigma # A2034), and samples (2 or 5 μl/well) were measured in duplicate using 200 μl of reagent. An additional aliquot of sample, pipetted to a third well and diluted in 200 μl water, provided a blank for each specimen. Plates were incubated at room temperature (18, 15, and 10 minutes for glucose, triglycerides and total cholesterol, respectively) on a plate shaker (DPC Micormix 5) and absorbance read at 500 nm (glucose and total cholesterol) or 540 nm (triglycerides) on a plate reader (Wallac Victor 1420). […]

Experiment [2] deals with HuapoAI transgenic mice. The experiment can be described thus: Evaluation of triglyceride and cholesterol level in HuapoAI transgenic mice. It is filed as in vivo. Conditions: human apoAI transgenic mice; for change in vivo at 30 mg/kg / inhibition in vivo at 30 mg/kg: Mus musculus, 168 h, 30 mg/kg oral gavage daily for 7 days; for change in vivo at 30 mg/kg: FPLC area under the curve, over mice receiving vehicle, read-out: % HDLc Increase; for inhibition in vivo at 30 mg/kg: serum 3 h after dosing, read-out: Reduction in Triglyceride Serum Level. How it is done: After an acclimation period of 2 weeks, animals were individually identified by ear notches, weighed, and assigned to groups based on body weight. Beginning the following morning, mice were dosed daily by oral gavage for 7 days using a 20 gauge, 1½″ curved disposable feeding needle (Popper & Sons). […] Prior to termination on day 7, mice were weighed and dosed. Three hours after dosing, animals were anesthetized by inhalation of isoflurane (2-4%; Abbott Laboratories, Chicago, Ill.) and blood obtained via cardiac puncture (0.7-1.0 ml). Whole blood was transferred to serum separator tubes (Vacutainer SST), chilled on ice, and permitted to clot. Serum was obtained after centrifugation at 4° C. and frozen until analysis for triglycerides, total cholesterol, compound levels, and serum lipoprotein profile by fast protein liquid chromatography (FPLC) coupled to an inline detection system. After sacrifice by cervical dislocation, the liver, heart and epididymal fat pads were excised and weighed.
The absorbance of the dye produced is linearly related to the analyte in the sample. The assays were further modified in our laboratory for use in a 96 well format. […] An additional aliquot of sample, pipetted to a third well and diluted in 200 μl water, provided a blank for each specimen. […] Sample absorbances were compared to a standard curve (100-800, 10-500, and 100-400 mg/dl for glucose, triglycerides and total cholesterol, respectively). […] All samples from an experiment were assayed at the same time to minimize inter-assay variability.
Serum lipoproteins were separated and cholesterol quantitated with an in-line detection system. Sample was applied to a Superose® 6 HR 10/30 size exclusion column (Amersham Pharmacia Biotech) and eluted with phosphate buffered saline-EDTA at 0.5 ml/min. […] The change in voltage corresponding to change in cholesterol concentration was plotted vs time and the area under the curve corresponding to the elution of VLDL, LDL and HDL was calculated using Perkin Elmer Turbochrome software.

Experiment [3] has as its system huPPARα. The experiment can be described thus: Cotransfection assay in CV-1 cells, huPPARα. It is filed as cell-based, human. Particulars: GAL4 chimeric system, relative to PPARα agonist reference molecule. How it is done:
DNA-dependent binding (ABCD binding) was carried out using SPA technology with PPAR receptors. Tritium-labeled PPARα and PPARγ agonists were used as radioligands for generating displacement curves and IC50 values with compounds of the invention. Cotransfection assays were carried out in CV-1 cells. The reporter plasmid contained an acylCoA oxidase (AOX) PPRE and TK promoter upstream of the luciferase reporter cDNA. Appropriate PPARs and RXRα were constitutively expressed using plasmids containing the CMV promoter. […] In order to eliminate such interference, a GAL4 chimeric system was used in which the DNA binding domain of the transfected PPAR was replaced by that of GAL4, and the GAL4 response element was utilized in place of the AOX PPRE. Cotransfection efficacy was determined relative to PPARα agonist and PPARγ agonist reference molecules. Efficacies were determined by computer fit to a concentration-response curve, or in some cases at a single high concentration of agonist (10 μM). For binding or cotransfection studies with receptors other than PPARs, similar assays were carried out using appropriate ligands, receptors, reporter constructs, etc., for that particular receptor.
These studies were carried out to evaluate the ability of compounds of the invention to bind to and/or activate various nuclear transcription factors, particularly huPPARα (“hu” indicates “human”) and huPPARγ. These studies provide in vitro data concerning efficacy and selectivity of compounds of the invention. Furthermore, binding and cotransfection data for compounds of the invention were compared with corresponding data for marketed compounds that act on either huPPARα or huPPARγ.

The mark [4] stands for this setting: 100 mg/kg oral daily 7 days, vs vehicle.

SMILES strings stand for the structures.

As for `Cc1oc(-c2ccccc2)nc1CCOc1ccc(CC(C)(Oc2ccccc2)C(=O)O)cc1` (racemic) [Example 1, rac-3-{4-[2-(2-Phenyl-5-methyl-oxazol-4-yl)-ethoxy]-phenyl}-2-methyl-2-phenoxy-propionic acid], in experiment [1], the inhibition in vivo at 30 mg/kg worked out at 95%. In experiment [2], the change in vivo at 30 mg/kg was determined as 83% and the inhibition in vivo at 30 mg/kg stood at 41.3%.
On to `Cc1oc(-c2cccs2)nc1CCOc1ccc(CC(C)(Oc2ccccc2)C(=O)O)cc1` (racemic) [Example 4, rac-2-Methyl-3-{4-[2-(5-methyl-2-thiophen-2-yl-oxazol-4-yl)-ethoxy]-phenyl}-2-phenoxypropionic acid], for which the inhibition in vivo at 30 mg/kg in experiment [1] stood at 74%. Moreover, in experiment [2], the change in vivo at 30 mg/kg was determined as 24% and the inhibition in vivo at 30 mg/kg worked out at 58.3%.
For `Cc1oc(-c2ccccc2)nc1CCOc1ccc(C[C@@](C)(Oc2ccccc2)C(=O)O)cc1` [Example 2, (R)-3-{4-[2-(2-Phenyl-5-methyl-oxazol-4-yl)-ethoxy]-phenyl}-2-methyl-2-phenoxy-propionic acid], in that order: 9%, 25% and -12.9%.
Regarding `Cc1oc(-c2ccccc2)nc1CCOc1ccc(C[C@](C)(Oc2ccccc2)C(=O)O)cc1` [Example 3, (S)-3-{4-[2-(2-Phenyl-5-methyl-oxazol-4-yl)-ethoxy]-phenyl}-2-methyl-2-phenoxy-propionic acid], the inhibition in vivo at 30 mg/kg in experiment [1] came to 85%. The change in vivo at 30 mg/kg in experiment [2] was found to be 67%.
On to `Cc1oc(-c2cccs2)nc1CCOc1ccc(C[C@@](C)(Oc2ccccc2)C(=O)O)cc1` [Example 5, (R)-2-Methyl-3-{4-[2-(5-methyl-2-thiophen-2-yl-oxazol-4-yl)-ethoxy]-phenyl}-2-phenoxypropionic acid], for which the inhibition in vivo at 30 mg/kg in experiment [1] was 80%. Further, in experiment [2], the change in vivo at 30 mg/kg was 30% and the inhibition in vivo at 30 mg/kg was determined as 19.7%.
For `Cc1oc(-c2cccs2)nc1CCOc1ccc(C[C@](C)(Oc2ccccc2)C(=O)O)cc1` [Example 6, (S)-2-Methyl-3-{4-[2-(5-methyl-2-thiophen-2-yl-oxazol-4-yl)-ethoxy]-phenyl}-2-phenoxypropionic acid], in that order: 86%, 85% and 38.5%.
For `Cc1oc(C2CCCCC2)nc1CCOc1ccc(CC(C)(Oc2ccccc2)C(=O)O)cc1` (stereo not drawn) [Example 7, 2-Methyl-3-(4-{2-[5-methyl-2-cyclohexyl-oxazol-4-yl]-ethoxy}-phenyl)-2-phenoxypropionic acid], in that order: 86%, 39% and 42.1%.
For `Cc1c(C)c2c(c(C)c1O)CCC(C)(COc1ccc(CC3SC(=O)NC3=O)cc1)O2` (stereo not drawn) [Troglitazone, reference compound], in experiment [3], the “huPPARα CTF Efficacy” value turned out to be 0%.
For the compound `CC(C)OC(=O)C(C)(C)Oc1ccc(C(=O)c2ccc(Cl)cc2)cc1` [fenofibrate, reference compound], in experiment [2] (100 mg/kg oral daily 7 days, FPLC of pooled sera, vehicle 47-62 v-sec), the HDLc peak area was 68-96 v-sec. Also, in experiment [2] (100 mg/kg oral daily 7 days, FPLC, vs vehicle), the “mean percent increase of HDLc” value was determined as 48%. Besides, in experiment [2] (setting [4]), the “mean elevation of total serum cholesterol” value is recorded as 41% and the “mean reduction of triglycerides” value is 37%. This compound yielded an average triglycerides values in experiment [2] (100 mg/kg oral daily 7 days, vehicle 60-80 mg/dl) of 33 to 58 mg/dL. The “average total serum cholesterol values” in experiment [2] (100 mg/kg oral daily 7 days, vehicle 140-180 mg/dl) lay within 190 to 280 mg/dL.
